Measured values reported in patent publication US20060003896A1, “Novel diterpenoid compounds imparting stress resistance to plants” (National Institute of Agrobiological Sciences, priority 2002, published 2006).

Tests used:
TMV = experiment: Defense of tobacco against TMV infection (necrotic lesion size, TMV coat protein); assay type: in vivo, tobacco mosaic virus
Protocol: To complete the infection, this healthy leaf was allowed to stand at room temperature for 30 minutes and washed with water removing the silicon carbide, after air drying, was put into a transparent plastic box spread with wet filter papers, followed by culture at 30° C. for 40 hours, then at 20° C. for 6 hours.
In this Example, the substance in this invention was administered to non-TMV-infected tobacco as a target. TMV stimulation was then given, under the same conditions as those in Example 1, to plants administered with the substance of this invention at the concentrations shown in FIG. 12 and tp control plant not administered to measure the size of necrotic lesions and the amount of TMV coat protein.

WIPK = WIPK activity measurement (MBP phosphorylation by anti-WIPK immune complex) in treated tobacco leaves; assay type: cell-based, Nicotiana tabacum cv. Samsun NN
Protocol: The WIPK induced activity assay was conducted as follows: A filter paper was spread in a glass Petri dish of 3 cm inside diameter, onto which the test solution for assay was added, organic solvent was removed under the flow of nitrogen gas, and 10 mM Mes-NaOH (pH 5.6) of 1 ml was added, on which three leaf disks (diameter 9 mm) stamped out of the tobacco leaves were placed per Petri dish and cultured at 24° C. In two hours, the disks were collected and immediately frozen in liquid nitrogen to be used in WIPK activity measurement that was conducted following the method described in Seo et al. (1999) Plant Cell 11, 289-291. The outline is as follows:
Crude protein of 50 μg and anti-WIPK antibody were reacted and the myelin basic protein phosphorylation activity of WIPK in the resultant immune complex was measured.
(§1) Isolated material was dissolved in dimethyl sulfoxide (DMSO) and diluted with 10 mM Mes-NaOH (pH 5.6) to an adequate concentration. If it was used in an assay, the DMSO concentration was kept below 0.1%. […] 10 mM Mes-NaOH (pH 5.6) without active substance of the invention was used as a control group. In a certain amount of time, the leaves were collected and immediately frozen in liquid nitrogen to conduct WIPK activity measurement or RNA extraction for Northern blot analysis. WIPK activity measurement, RNA extraction and Northern blot analysis were performed following Seo et al. (1999) plant Cell 11, 289-291. WIPK activity was measured 15 minutes after the subject was allowed to absorb the isolated compound at the given concentration through the petiole. Only buffer was absorbed in a control group. As another control group (healthy leaf), leaves were cut from tobacco plant body to be immediately subjected to WIPK activity measurement. For proteinase inhibitor II (PI-II), basic PR-1, basic PR-2 genes and ACO, transcription product amounts of PI-II, basic PR-1, basic PR-2 genes and ACO-coding gene were measured after allowing the subject absorb the isolated compound at the given concentration through the petiole for a period of time. As a control group, only buffer was absorbed. The outline is as follows:
(§2) Using natural isolated substances, preparations at concentrations of 10 and 100 pM, and 1 and 100 nM were prepared and these natural preparations or water were penetrated into tobacco leaf disks, followed by sampling at 30 minutes after treatment, to measure the MBP phosphorylation activity of WIPK and SIPK as described above.

SIPK = SIPK activity measurement (MBP phosphorylation by anti-SIPK immune complex) in treated tobacco leaves; assay type: cell-based, Nicotiana tabacum cv. Samsun NN
Protocol: As an active substance, the substance isolated in Example 1 was used as a standard. The isolated substance was dissolved in dimethyl sulfoxide (DMSO) and diluted to adequate concentration (0.3, 1.5 and 3 ng/ml) with 10 mM Mes-NaOH (pH 5.6). If it was used in an assay, the DMSO concentration was kept below 0.1%. […] 10 mM Mes-NaOH (pH 5.6) without active substance of the invention was used as a control group. In a certain amount of time, the leaves were collected and immediately frozen in liquid nitrogen to measure the SIPK activity. The measurement was conducted as follows:
Crude protein of 50 μg and anti-SIPK antibody were reacted and the myelin basic protein (MBP) phosphorylation activity of SIPK in the resultant immune complex was measured.
as §2

ACO-coding gene = experiment: Northern blot analysis of transcription products in treated tobacco leaves; assay type: cell-based, Nicotiana tabacum cv. Samsun NN; settings: through the petiole
Protocol: as §1, with “follows: Nucleic acid hybridization reaction was performed on nylon membrane containing 20 μg total RNA with ^32P-radiolabeled cDNA of tobacco PI-II, basic PR-1, basic PR-2 genes and ACO-coding gene. After the membrane was washed it was used to expose to an X-ray film.” for “follows:”

basic PR-1 gene = experiment: as above; assay type: cell-based, Nicotiana tabacum cv. Samsun NN; settings: through the petiole
Protocol: as §1, with “follows: Nucleic acid hybridization reaction was performed on nylon membrane containing 20 μg total RNA with ^32P-radiolabeled cDNA of tobacco PI-II, basic PR-1, basic PR-2 genes and ACO-coding gene. After the membrane was washed it was used to expose to an X-ray film.” for “follows:”

basic PR-2 gene = experiment: as above; assay type: cell-based, Nicotiana tabacum cv. Samsun NN; settings: through the petiole
Protocol: as §1, with “follows: Nucleic acid hybridization reaction was performed on nylon membrane containing 20 μg total RNA with ^32P-radiolabeled cDNA of tobacco PI-II, basic PR-1, basic PR-2 genes and ACO-coding gene. After the membrane was washed it was used to expose to an X-ray film.” for “follows:”

[1] = test system: proteinase inhibitor II gene; experiment: as above; assay type: cell-based, Nicotiana tabacum cv. Samsun NN
Protocol: as §1, with “follows: Nucleic acid hybridization reaction was performed on nylon membrane containing 20 μg total RNA with ^32P-radiolabeled cDNA of tobacco PI-II, basic PR-1, basic PR-2 genes and ACO-coding gene. After the membrane was washed it was used to expose to an X-ray film.” for “follows:”

JA = experiment: Intrinsic JA level in tobacco leaves after absorption through the petiole; assay type: cell-based; settings: 3-, 6-, 12- or 24-hours culture
Protocol: To evaluate whether the induction of basic pathogenesis-related protein gene (PR-1 and PR-2) and proteinase inhibitor II gene by synthetic substance occurred through JA or SA, 100 nM or 1 μM WAF-1 or water was absorbed into tobacco leaves through the petiole, followed by culture at 24° C., to measure the intrinsic level of JA.

SA = experiment: Intrinsic SA level in tobacco leaves after absorption through the petiole; assay type: cell-based; settings: 3-, 6-, 12- or 24-hours culture
ethylene = experiment: Release of ethylene from treated tobacco leaf; assay type: cell-based
Protocol: Ethylene acts as a signal in the induction of basic PR protein of tobacco plant, so the release of ethylene was measured after externally giving WAF-1 to a tobacco leaf as above to evaluate the effects of synthetic substance on ethylene accumulation.

WIZZ gene = experiment: RNA gel blotting of WIZZ transcript in tobacco leaf disks; assay type: cell-based; settings: 1 nM, 30 minutes after penetrance
Protocol: The transition in expression of the WIZZ transcript after stimulation with WAF-1 in this invention was ascertained using the following method. Leaf disks stamped out of tobacco leaves were penetrated with 1 nM WAF-1 solution or water and collected at 30 minutes after penetrance to be used for total RNA extraction. Total RNA extraction followed the method described in Seo et al. Plant Cell 1999, 11, 289-299. Isolated total RNA was subjected to RNA gel blotting analysis following the above procedure. A fragment, whose sequence corresponded to bases 877-1211 in the WIZZ cDNA (335 bp) was amplified, and used as a probe. As an internal standard probe, actin cDNA (described in Seo et al. 2000 12, 917-932) was also used. An RNA gel blot membrane containing 20 μg total RNA per lane was analized.

vermin = experiment: Presenting vermin to rice administered with the substance; assay type: in vivo; settings: vermin presented
Protocol: Therefore, an experiment was conducted by administering this substance to plants and presenting vermin to the administered plant. In this example, rice was used as a target.

[2] = test system: Arabidopsis (Arabidopsis thaliana); experiment: Growth of periphery and height of stem after spraying; assay type: in vivo; settings: sprayed, 300, 100 and 30 ng/ml, 24° C.
Protocol: (§3) In this Example, 15-day-old Arabidopsis (Arabidopsis thaliana), 1-month-old tobacco (Nicotiana tabacum cv. Samsun—NN), or 20-day-old rice (Oryza sativa) was used to provide plant bodies. The compound of this invention was dissolved in dimethyl sulfoxide (DMSO) and diluted with 10 mM Mes-NaOH (pH 5.6) to an adequate concentration (300, 100 and 30 ng/ml). 10 mM of Mes-NaOH containing the compound of this invention at the given concentration was sprayed to tobacco and rice plant bodies, followed by culture at 24° C. As a control group, 10 mM Mes-NaOH (pH 5.6) free of the compound of this invention was used. In a certain amount of time, the periphery and the height of stem above ground level were measured in rice, Arabidopsis and tobacco plant bodies.

rice (Oryza sativa) = experiment: as above; assay type: in vivo; settings: sprayed, 300, 100 and 30 ng/ml, 24° C.
Protocol: as §3

[3] = test system: tobacco (Nicotiana tabacum cv. Samsun—NN); experiment: as above; assay type: in vivo; settings: sprayed, 300, 100 and 30 ng/ml, 24° C.
Protocol: as §3

petunia plant body = experiment: Flowering of petunia plant bodies after spraying; assay type: in vivo
Protocol: In this example, 1-month-old petunia plant body was used. The compound of this invention was dissolved in dimethyl sulfoxide (DMSO) and diluted with 10 mM Mes-NaOH (pH 5.6) to an adequate concentration (300, 100 and 30 ng/ml). 10 mM Mes-NaOH containing the compound of this invention at the given concentration was sprayed on the petunia plant bodies, followed by culture at 24° C. In a control group, 10 mM Mes-NaOH (pH 5.6) without the compound of this invention was used. After a certain amount of time, observation of the gross flowering features of the plant bodies was performed. The administration of the compound of this invention to plants was then discontinued, only buffer was sprayed, and the flowering was observed.

[4] = 1, 5 and 10 nM through the petiole
[5] = tobacco leaf disks, 30 minutes after treatment

“(11E,13E)-labda-11,13-diene-8α,15-diol [WAF-1]” was tested, and the “TMV coat protein amount” value (TMV; tobacco leaf, 100 pM or 100 nM vs water) was “decrease” and the “concentration above which the size of necrotic lesions decreased” value (TMV; tobacco, TMV stimulation, 10 pM to 100 nM, dose-dependent) was “higher than 100 pM”.
CC(/C=C/[C@@H]1[C@@]2(C)CCCC(C)(C)[C@@H]2CC[C@@]1(C)O)=C\CO [WAF-1, (11E,13E)-labda-11,13-diene-8α,15-diol] was tested, and the “time at which WIPK activity was maximized” value (WIPK; [4]) was 15 min, the “time at which induction of WIPK activity was observed” value (WIPK; [4]) was 5 min and the “WIPK activity at 30 minutes” value (WIPK; 1, 5 and 10 nM through the petiole, 30 minutes) was “retained maximum activity”. The “induction of WIPK activity” value (WIPK; each concentration of FIG. 2A given to leaf through the petiole, 15 minutes) was “induction of WIPK activity at any concentration”, the “concentration above which activation of WIPK is significant” value (WIPK; [5]) was over 10 pM and the “time at which induction of SIPK activity was maximized” value (SIPK; [4]) was 15 min. For the same molecule, the “induction of SIPK activity” value (SIPK; each concentration of FIG. 4 (0.3, 1.5 and 3 ng/ml) through the petiole, 15 minutes) was “induction of SIPK activity at any concentration”, the “concentration above which activation of SIPK is significant” value (SIPK; [5]) was over 10 pM and the “accumulation of ACO” value (ACO-coding gene) was “accumulation”. The “accumulation of basic PR-1” value (basic PR-1 gene) was “accumulation”, the “accumulation of basic PR-2” value (basic PR-2 gene) was “accumulation” and the “amount of proteinase inhibitor II transcript compared with control group” value ([1]; 16 hours) was “significantly more”. The “time at which accumulation of transcription products of proteinase inhibitor II gene was detected” value ([1]; examined in 2, 6 and 16 hours, concentration of FIG. 3, through the petiole) was 16 h, the “amount of JA in treated leaves” value (JA; 100 nM) was “at the same level as those treated with water” and the “amount of JA in treated leaves” value (JA; 1 AM (so in the source)) was “at the same level as those treated with water”. The “amount of SA in treated leaves” value (SA; 100 nM) was “at the same level as those treated with water”, the “amount of SA in treated leaves” value (SA; 1 AM (so in the source)) was “at the same level as those treated with water” and the “level of ethylene released from leaves, relative to leaf treated with water” value (ethylene; 100 nM) was 1.2 times. The “level of ethylene released from leaves, relative to leaf treated with water” value (ethylene; 1 μM) was 1.4 times, the “level of WIZZ transcript compared with leaf disks impregnated with water” value (WIZZ gene) was “higher” and the “growth in administered rice compared with rice not administered” value (vermin) was “Growth was regulated”. The “growth of periphery and height of stem vs control group” value [2] was “delay in growth of the periphery and height of stem”, the “growth of height above ground level vs control group” value (rice (Oryza sativa)) was “growth of height above ground level was observed” and the “growth of periphery and height of stem vs control group” value [3] was “delay in growth of the periphery and height of stem”. The “flowering after discontinuation of administration” value (petunia plant body; only buffer sprayed) was “observation of flowering” and the “flowering vs control group” value (petunia plant body; sprayed, 300, 100 and 30 ng/ml, 24° C.) was “delay in flowering”.
